From patent publication US20240174608A1, “COMPOUNDS FOR BRAIN IMAGING” (The General Hospital Corporation, priority 2021, published 2024)

Tests used:
[1] = system: histone deacetylases (HDACs); details: at 100 μM; cited from earlier work
[2] = system: NAD glycohydrolase (NADase); details: at 100 μM; cited from earlier work
SIRT1 [3] = assay: NHP PET/MR brain imaging; details: baboon
Experimental: (§2) Atropine 0.05 mg/kg was used intramuscularly to prevent excessive secretion (15 or 30 min of ketamine and xylazine). Anesthesia was induced with intramuscular xylazine (0.5-2.0 mg/kg) and ketamine (10 mg/kg). […] PET/MR images were acquired in a Biograph mMR scanner (Siemens Healthcare, Erlangen, Germany), and PET compatible 8-channel coil arrays for NHP brain imaging with a PET resolution of ˜5 mm at isocenter. Dynamic PET image acquisition was initiated followed by administration of [^11C]8 in a homogeneous solution of 10% ethanol and 90% isotonic saline. A high-resolution structural MRI using [sequence] sequence was acquired about 30 min post-radiotracer administration for anatomical co-registration. Dynamic PET data were acquired and stored in list mode. After corrected for attenuation, scatter, and decay, the PET images were reconstructed using a 3D-OSEM method. […] Volumes of interests were placed referencing the MRI template. Time-activity curves were exported in terms of decay corrected activity at specified time points with gradually increasing intervals. The time-activity curves were expressed as SUV.

[4] = NHP arterial plasma analysis; details: baboon
Experimental: as §2

SIRT1 [5] = target: T1, SIRT1 (Mus musculus, UniProt Q923E4); assay: PET/CT imaging in 5×FAD transgenic mice (AD model); assay type: in vivo; parameters: from tissue; host or cells: brain of living 5×FAD transgenic mice; details: at 3 min
T1 sequence (Q923E4 1-737): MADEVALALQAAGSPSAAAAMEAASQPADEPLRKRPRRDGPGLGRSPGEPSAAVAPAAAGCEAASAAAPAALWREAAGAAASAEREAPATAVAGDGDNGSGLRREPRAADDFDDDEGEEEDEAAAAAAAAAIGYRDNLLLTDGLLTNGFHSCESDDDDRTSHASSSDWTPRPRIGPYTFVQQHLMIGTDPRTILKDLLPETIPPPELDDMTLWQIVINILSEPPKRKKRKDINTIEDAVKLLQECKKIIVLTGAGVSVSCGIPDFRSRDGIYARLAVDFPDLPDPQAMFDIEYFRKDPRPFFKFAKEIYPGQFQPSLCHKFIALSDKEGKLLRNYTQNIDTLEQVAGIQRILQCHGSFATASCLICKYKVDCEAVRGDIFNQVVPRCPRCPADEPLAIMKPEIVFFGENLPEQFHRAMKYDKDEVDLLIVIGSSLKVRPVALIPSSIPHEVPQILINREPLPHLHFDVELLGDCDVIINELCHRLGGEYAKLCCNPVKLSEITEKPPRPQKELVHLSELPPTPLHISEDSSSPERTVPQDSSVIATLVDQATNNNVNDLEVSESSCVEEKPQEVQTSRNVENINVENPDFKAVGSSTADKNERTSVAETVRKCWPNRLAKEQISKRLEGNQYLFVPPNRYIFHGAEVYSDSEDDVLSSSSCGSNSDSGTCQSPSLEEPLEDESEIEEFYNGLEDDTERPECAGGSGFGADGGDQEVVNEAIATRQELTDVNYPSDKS
Excerpt: C57BL/6 mice were used for baseline and blocking studies (25-30 g, male; n=6 for baseline, n=5 for blocking with the pre-treatment of compound 8, and n=6 for blocking with the pre-treatment of Ex-527), and B6SJL wild-type and 5×FAD transgenic mice (20-25 g, male; n=4 for wild-type mice and n=4 for 5×FAD transgenic mice) were included to evaluate the [^11C]8 in a model of AD. All animals were anesthetized with inhalational isoflurane at 3% in a carrier of 2 L/min medical oxygen, and maintained at 2% isoflurane for the duration of the scan. The mice were fixed on the bed of a Triumph Trimodality PET/CT scanner (Gamma Medica, Northridge, CA) in the prone position, and injected with [^11C]8 (150-200 μL, ˜200 μCi) via a lateral tail vein catheterization at the start of PET acquisition. For blocking studies, compound 8 (5 mg/kg, iv) or Ex-527 (5 mg/kg, iv) was injected at 10 min prior to [^11C]8 injection. Dynamic PET acquisition lasted for 60 min and was followed by CT for anatomic coregistration. PET data were reconstructed using a 3D-MLEM method resulting in a full width at half-maximum resolution of 1 mm. Reconstructed images were exported from the scanner in DICOM format along with an anatomic CT. […] The time-activity curves were expressed as the percentage of injected dose per gram (% ID/g).

SIRT1 [6] = target: T1, SIRT1; assay: Rodent PET/CT baseline imaging and whole body biodistribution; assay type: in vivo; parameters: from tissue; host or cells: brain and other organs of living C57BL/6 mice; details: C57BL/6 mice
Excerpt: (§1) C57BL/6 mice were used for baseline and blocking studies (25-30 g, male; n=6 for baseline, n=5 for blocking with the pre-treatment of compound 8, and n=6 for blocking with the pre-treatment of Ex-527), and B6SJL wild-type and 5×FAD transgenic mice (20-25 g, male; n=4 for wild-type mice and n=4 for 5×FAD transgenic mice) were included to evaluate the [^11C]8 in a model of AD. All animals were anesthetized with inhalational isoflurane at 3% in a carrier of 2 L/min medical oxygen, and maintained at 2% isoflurane for the duration of the scan. The mice were fixed on the bed of a Triumph Trimodality PET/CT scanner (Gamma Medica, Northridge, CA) in the prone position, and injected with [^11C]8 (150-200 μL, ˜200 μCi) via a lateral tail vein catheterization at the start of PET acquisition. For blocking studies, compound 8 (5 mg/kg, iv) or Ex-527 (5 mg/kg, iv) was injected at 10 min prior to [^11C]8 injection. Dynamic PET acquisition lasted for 60 min and was followed by CT for anatomic coregistration. PET data were reconstructed using a 3D-MLEM method resulting in a full width at half-maximum resolution of 1 mm. Reconstructed images were exported from the scanner in DICOM format along with an anatomic CT. […] Volumes of interests, including the whole brain, striatum, cortex, thalamus, midbrain, cerebellum and brain stem were placed referencing the MRI template software. […] The time-activity curves were expressed as the percentage of injected dose per gram (% ID/g).

SIRT1 [7] = target: T1, SIRT1; assay: Rodent PET/CT blocking studies (in vivo specificity); parameters: from tissue; host or cells: brain and other organs of living C57BL/6 mice; species or system C57BL/6 mice; details: for specific binding in brain: at 60 min
Excerpt: as §1

[8] = baseline whole body biodistribution

Compound	inhibitory effect on class VII histone deacetylases (HDACs) [1]	inhibitory effect on NAD glycohydrolase (NADase) [2]	uptake in midbrain (SIRT1 [3]) [SUV]	uptake in thalamus (SIRT1 [3]) [SUV]	peak whole brain uptake (SIRT1 [3]; intravenous)	time to peak concentration in whole brain (SIRT1 [3]; intravenous)	arterial plasma radioactivity remaining (of the total radioactivity) ([4]; after 10 min)	parent compound in plasma (stability in plasma over time) ([4]; at 30 min)	brain uptake plateau (SIRT1 [5]) [% ID/g]	radioactivity in liver and kidney (SIRT1 [6]; [8]) [% ID/g]	uptake in blood (SIRT1 [6]; [8])	BBB penetration (SIRT1 [6]; baseline)	time to reach plateau of brain time course (SIRT1 [6]; baseline)	maximum radioactivity accumulation in the whole brain (SIRT1 [6]; baseline, iv tail vein) [% ID/g]	washout ratio % ID/g 5 min / % ID/g 60 min (SIRT1 [6]; baseline, brain)	brain uptake plateau (SIRT1 [7]; at 5 min, pre-treatment with compound 8 (5 mg/kg, iv)) [% ID/g]	specific binding in brain (SIRT1 [7]; blocking by pre-treatment with Ex-527 (5 mg/kg, iv) 10 min prior) [%]	specific binding in brain (SIRT1 [7]; self-blocking, pre-treatment with compound 8 (5 mg/kg, iv) 10 min prior) [%]	specific binding in blood, heart and lung (SIRT1 [7]; both blocking experiments)	specific binding in liver and kidney (SIRT1 [7]; both blocking experiments)
NC(=O)C1CCCc2c1[nH]c1ccc(Cl)cc21 (centres unmarked) [Ex-527]	no inhibitory effect	no inhibitory effect	–	–	–	–	–	–	–	–	–	–	–	–	–	–	–	–	–	–
[11CH3]c1ccc2[nH]c3c(c2c1)CCCC3C(N)=O (centres unmarked) [[^11C]8, 6-[^11C]methyl-2,3,4,9-tetrahydro-1H-carbazole-1-carboxamide]	–	–	4.1	3.6	greater than 2.9 SUV	approximately 4 min	less than 10%	more than 30%	6.3	> 10	relatively low uptake	penetrated the BBB	around 5 min	7.5	1.01	6.0	62	68	abundant specific binding	No specific binding
